Laboratory results from PubChem BioAssay (NCI).
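48-hour exposure; five concentrations; linearly interpolated endpoints. TGI marks complete inhibition of growth.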

Legend:
Assay in all cases: NCI tumour cell line growth inhibition, 48 h
UO-31 renal = system: UO-31 renal
MALME-3M melanoma = system: MALME-3M melanoma
HL-60(TB) leukemia = system: HL-60(TB) leukemia
SW-620 colon = system: SW-620 colon
OVCAR-8 ovarian = system: OVCAR-8 ovarian
UACC-257 melanoma = system: UACC-257 melanoma
CAKI-1 renal = system: CAKI-1 renal
MCF7 breast = system: MCF7 breast
OVCAR-3 ovarian = system: OVCAR-3 ovarian

| Structure (SMILES) | TGI (UO-31 renal) | TGI (MALME-3M melanoma) | TGI (HL-60(TB) leukemia) | TGI (SW-620 colon) | TGI (OVCAR-8 ovarian) | TGI (UACC-257 melanoma) | TGI (CAKI-1 renal) | TGI (MCF7 breast) | TGI (OVCAR-3 ovarian) |
| --- | --- | --- | --- | --- | --- | --- | --- | --- | --- |
| COC12C=CC(CC1)C(C)(C)C2OS(C)(=O)=O (centres undefined) | > 100 µM | > 100 µM | > 100 µM | > 100 µM | > 100 µM | > 100 µM | > 100 µM | > 100 µM | > 100 µM |
| S=C(N/N=C(\C(=N/NC(=S)N1CCCCC1)c1ccccn1)c1ccccn1)N1CCCCC1 | > 100 µM | > 100 µM | 19.8 µM | > 100 µM | > 100 µM | > 100 µM | > 100 µM | > 100 µM | > 100 µM |
| CC(C)=CCC[C@@H](C)C1=CC(=O)C(C)=C(O)C1=O | 13.5 µM | 23.3 µM | 0.878 µM | 33.5 µM | 4.83 µM | 25.5 µM | 10.5 µM | 16 µM | 15.8 µM |
| COc1cc2[nH]c(=O)c3cc(C)cc4c(Cl)nc(c1OC)c2c43 | > 100 µM | 62 µM | > 100 µM | > 100 µM | > 100 µM | > 100 µM | > 100 µM | > 100 µM | > 100 µM |
| O=C1CC(C(COCc2ccccc2)OCc2ccccc2)CC(=O)N1 (centres undefined) | > 100 µM | > 100 µM | > 100 µM | > 100 µM | > 100 µM | > 100 µM | > 100 µM | > 100 µM | > 100 µM |
| C[C@]12CC[C@H](O)CC1=CC[C@@H]1[C@@H]2CC[C@]2(C)C(=O)/C(=C/c3ccc([N+](=O)[O-])cc3)C[C@@H]12 | 28 µM | 53.7 µM | > 100 µM | > 100 µM | 12.3 µM | 56 µM | > 100 µM | > 100 µM | 33.8 µM |
| CCOC(=O)C(NC(=O)CC)(Nc1ccc(S(=O)(=O)Nc2ccc(OC)nn2)cc1)C(F)(F)F (centres undefined) | > 100 µM | > 100 µM | > 100 µM | > 100 µM | > 100 µM | > 100 µM | > 100 µM | > 100 µM | > 100 µM |
| O=C(N[C@H]1CCC[C@H]1C(=O)Nc1ccc(C(F)(F)F)cc1)OCc1ccccc1 | > 100 µM | > 100 µM | > 100 µM | > 100 µM | > 100 µM | > 100 µM | > 100 µM | > 100 µM | > 100 µM |
| CC(=O)OCC1OC(SC2=NC(=O)/C(=C/c3ccccc3)S2)C(OC(C)=O)C(OC(C)=O)C1OC(C)=O (centres undefined) | 52.8 µM | 70.5 µM | 31.3 µM | 74.1 µM | 31.7 µM | > 100 µM | 12 µM | 52.2 µM | 44.4 µM |
| CC1C(C#N)(C#N)C(C#N)=C(N)C1(C)[N+](=O)[O-] (centres undefined) | > 100 µM | > 100 µM | 90.7 µM | > 100 µM | > 100 µM | > 100 µM | > 100 µM | > 100 µM | > 100 µM |
| CC(=O)c1ccc2c3c1O[C@H]1c4[nH]c5ccccc5c4C[C@@]4(O)[C@@H](C2)N(CC2CC2)CC[C@]314 | 28.7 µM | 36.3 µM | 37 µM | 20.6 µM | 27.8 µM | 30.7 µM | 37.4 µM | 30.4 µM | 23.4 µM |
| CC(=O)N1C(Nc2cccc3nc(C)ccc23)CCN1c1ccccc1 (centres undefined) | > 10 µM | > 10 µM | > 10 µM | > 10 µM | > 10 µM | > 10 µM | > 10 µM | > 10 µM | > 10 µM |
| OC(C1CCCCCCCCCC1)C(O)C1CCCCCCCCCC1 (centres undefined) | > 100 µM | > 100 µM | > 100 µM | > 100 µM | > 100 µM | > 100 µM | > 100 µM | > 100 µM | > 100 µM |
| COC1=CC(=O)c2nc3ccccc3c3ccnc1c23 | > 50.2 µM | 7 µM | 10.7 µM | 35.1 µM | > 53.3 µM | 17 µM | > 53.8 µM | 15.2 µM | > 21.4 µM |
| O=c1[nH]nc(Cc2ccc(Cl)cc2)n1/N=C/c1c[nH]c2ccccc12 | > 100 µM | > 100 µM | > 100 µM | > 100 µM | > 100 µM | > 100 µM | > 100 µM | > 100 µM | > 100 µM |
| O=S(c1ccc(Cl)cc1)c1ccccc1C1=NCCN1 (centres undefined) | > 100 µM | > 100 µM | > 100 µM | > 100 µM | > 100 µM | > 100 µM | > 100 µM | > 100 µM | > 100 µM |
